Experimental data published in patent publication US20090233999A1, “COMPOSITIONS AND THERAPEUTIC METHODS INVOLVING ISOFLAVONES AND ANALOGUES THEREOF” (NOVOGEN RESEARCH PTY LTD, priority 1999, published 2009).

Legend:
[1] = tested on: TNFα; assay: UVB psoriasis model: cutaneous TNFα by ELISA; type: in vivo, mouse; conditions: for suppression of UVB-induced TNF-α level: 40 μM topical
Source text: Inbred, 6-8 weeks of age female C57/BL6, C3H/HeN and Skh:hr-1 (hairless) mice were fed normal stock rodent rations and tap water ad libitum. One day prior to UVB irradiation, the dorsal hair of C57/BL6 and C3H/HeN mice was removed by clipping. A single UVB tube (Phillips TL-40W/12 RS, Eindhoven, The Netherlands) emitting a spectrum of 280-365 nm with a peak emission at 310 nm, was used as the light source for the experiments. The radiation was filtered through a sheet of 0.125 mm cellulose acetate (Grafix Plastics, OH, USA) to block wavelengths below 290 nm. Irradiance was measured with an IL 1500 radiometer (International Light Inc. Newburyport, Mass.) with a UVB detector (SEE 240/UVB) calibrated to the spectral output, and recorded as 1.71×10-4 W/cm2. Groups of three female C57/BL6 and C3H/HeN mice were exposed unrestrained in their cages to 7.24 kJ/m2 UVB radiation equal to 3× the minimal erythemal dose (MED) in these haired mice (fur clipped), an exposure of approximately 70 min. Control mice were clipped of fur in the same manner but were not exposed to UVB irradiation. Groups of 3 Skh:hr-1 mice received 3.59 kJ/m2 of UVB, which is equal to 3×MED on hairless mouse skin. Temperature under the radiation source was stabilised during the exposures with surrounding curtains and an electric fan.
Cpd. 18 was dissolved as a 40 mM stock solution in DMSO, then diluted in a vehicle of propylene glycol-ethanol-water 1:2:1 to provide solutions of 0, 5, 10, 20 and 40 μM with […]. The vehicle control base lotion contained 0.001% DMSO. An aliquot of 100 μL of lotion was applied to the dorsum of three mice immediately, 1 h and 2 h after UVB irradiation for 24 h time point measurements, or once daily immediately after and for up to the next four days following irradiation, for later time points, and was spread evenly using a micropipette. Control mice were restrained in the same manner but were not exposed to UVB irradiation.
To determine the effect of UVB irradiation on cutaneous TNFα expression, groups of three C57/BL6 and C3H/HeN mice were euthanased before and at several time points up to 72 h following UVB irradiation, with and without topical treatment with 20 μM Cpd. 18, and the mid-dorsal skin was excised. […] Colour development was stopped after 30 min with 50 μL of 1M H2SO4, and quantitated spectrophotometrically at 405 nm. […]

[2] = tested on: SJL/J mice (EAE); assay: Experimental autoimmune encephalomyelitis (EAE), PLP 139-151; type: in vivo, mouse; conditions: 20 μM, 100 μl topical daily
Procedure: EAE induction was carried by immunisation with PLP 139-151 ([…]-NH2) in incomplete Freund's adjuvant (Sigma) supplemented with 4 mg/ml of Mycobacterium tuberculosis (strain H37Ra) as described previously, Groups of 6 female mice aged 4-5 weeks old were immunised, and body weight and the development neurological signs were monitored daily for 6 weeks. Clinical signs were scored according to an established scale:
Cpd. 18 was made up to a concentration of 20 μM in a vehicle of propylene glycol-ethanol-water (1:2:1) with 0.001% DMSO). An aliquot of 100 μl either of Cpd. 18 in vehicle, or the vehicle alone, was applied to the mouse dorsum (six mice per group) for 5 days before the immunisation (with PLP 139-151) and daily post-immunisation for 48 days.

COc1ccc(C2=Cc3ccc(O)cc3OC2)cc1OC [Cpd. 18, 7-Hydroxy-3′,4′-dimethoxyisoflav-3-ene]
suppression of UVB-induced TNF-α level ([1]; C3H/HeN, 3 h post-UVB): 40% | suppression of UVB-induced TNF-α level ([1]; C57/BL6, 3 h post-UVB): 45% | UVB-elevated TNFα levels ([1]; 5-40 μM, dose-dependent, each mouse strain, 3 h post-UVB): significantly reduced | TNFα expression, lotion alone ([1]; without UVB): no effect | disease course [2]: chronic relatively stable disease | severity of clinical signs ([2]; acute phase and first relapse at 28-36 days): tended to reduce the severity
